Where “and” joins values, the source holds several entries; their conditions need not be identical. Identical values can stand only once.
Test system: human embryonic stem cell line H9
Assay: Cytokine array analysis of cell lysates and conditioned media
Assay type: cell-based
Parameters: key to BMP-4 expression / BMP-6 expression / EGF expression / FGF-6 expression / Fractalkine expression / GCP-2 expression / IL-3 expression / IL-4 expression / IL-6 expression / M-CSF expression / MIG expression / Amphiregulin expression: cytokine array signal, normalized and background-subtracted
Procedure: The effect that Wnt-3a treatment has on cytokine expression was analyzed using a protein array. Cells of the human embryonic stem cell line H9 were cultured according to the methods described in Example 15. At passage 54, cells were differentiated in the presence of 100 ng/ml ActivinA+/−10 ng/ml Wnt3a for 2 days in 0.5% FBS DMEM/F12. Cells were subsequently cultured for an additional three days in 100 ng/mlActivin A and 2% FBS DMEM/F12. At the end of the 5th day, CXCR4 expression was determined by FACS for each treatment group.
Cell lysates were prepared from cells of each treatment group, with a mammalian cell lysis kit (Sigma-Aldrich, MO). Conditioned media from each treatment group was collected and concentrated. Cytokine array analysis was completed using Cytokine Array panels provided by RayBiotech, GA (http://www.raybiotech.com/). Table VII lists cytokine, growth factor, and receptor expression following normalization of the data and background subtraction. For each panel, positive and negative controls are also included. Th data shown are two independent samples per cell treatment group (1,2).

In the case of “Activin A: a member of the TGFβ superfamily; R&D Systems; Group 2 = Activin A (100 ng/ml)”, the 1L-1beta expression (Cell conditioned media) is reported as 117.99 and 75.93, the 1L-1ra expression (Cell conditioned media) is reported as 142.34 and 93.74 and the Acrp30 expression (Cell conditioned media) is reported as 1,797.52 and 1,319.88. The AgRP expression (Cell conditioned media) was 378.17 and 195.90, the Amphiregulin expression (Cell conditioned media) was 250.52 and 151.01 and the Angiogenin expression (Cell conditioned media) was 13,726.35 and 11,749.55. The Angiopoietin-2 expression (Cell conditioned media) was 655.82 and 632.60, the AxI expression (Cell conditioned media) was 401.31 and 324.05 and the BDNF expression (Cell conditioned media) was 689.22 and 563.39. For the same substance, the BMP-4 expression (Cell conditioned media) was 583.40 and 541.83, the BMP-6 expression (Cell conditioned media) was 354.91 and 355.28 and the “CK beta 8-1 expression” value (Cell conditioned media) was 17.79 and 25.31. The CNTF expression (Cell conditioned media) was 282.81 and 211.86, the EGF expression (Cell conditioned media) was 1,681.85 and 1,406.12 and the Eotaxin expression (Cell conditioned media) was 207.89 and 199.67. For the same substance, the Eotaxin-2 expression (Cell conditioned media) was 890.56 and 744.31, the Eotaxin-3 expression (Cell conditioned media) was 975.77 and 665.56 and the FGF-7 expression (Cell conditioned media) was 449.49 and 352.47. The “Flt-3 Ligand expression” value (Cell conditioned media) was 315.58 and 277.47, the Fractalkine expression (Cell conditioned media) was 120.80 and 145.30 and the GCP-2 expression (Cell conditioned media) was 203.21 and 166.86. For the same substance, the GDNF expression (Cell conditioned media) was 176.99 and 194.98, the GM-CSF expression (Cell conditioned media) was 777.25 and 722.75 and the IFN-gamma expression (Cell conditioned media) was 283.74 and 559.64. For the same substance, the IGF-I expression (Cell conditioned media) was 88.96 and 148.11, the IGFBP-1 expression (Cell conditioned media) was 33.71 and 24.37 and the IGFBP-2 expression (Cell conditioned media) was 27,656.85 and 28,473.95. The IGFBP-4 expression (Cell conditioned media) was 10,091.09 and 6,029.45, the IL-1alpha expression (Cell conditioned media) was 10,155.70 and 5,842.90 and the IL-2 expression (Cell conditioned media) was 188.22 and 363.72. The IL-3 expression (Cell conditioned media) was 4,598.86 and 5,260.77, the IL-4 expression (Cell conditioned media) was 357.72 and 239.04 and the IL-6 expression (Cell conditioned media) was 7,377.28 and 9,527.88. For the same substance, the IL-7 expression (Cell conditioned media) was 456.98 and 430.27, the IL-10 expression (Cell conditioned media) was 722.93 and 564.32 and the IL-16 expression (Cell conditioned media) was 259.39 and 214.67. The LIGHT expression (Cell conditioned media) was 619.92 and 453.71, the Leptin expression (Cell conditioned media) was 2,999.42 and 2,016.38 and the M-CSF expression (Cell conditioned media) was 529.09 and 269.04. The MCP-1 expression (Cell conditioned media) was 572.17 and 500.58, the MCP-4 expression (Cell conditioned media) was 123.61 and 61.87 and the MIG expression (Cell conditioned media) was 272.50 and 486.52. The NAP-2 expression (Cell conditioned media) was 97.39 and 110.61, the NT-3 expression (Cell conditioned media) was 97.39 and 171.55 and the PDGF-BB expression (Cell conditioned media) was 4,729.96 and 8,521.09. The RANTES expression (Cell conditioned media) was 393.31 and 347.78, the SCF expression (Cell conditioned media) was 691.09 and 487.46 and the “TGF-beta 1 expression” value (Cell conditioned media) was 752.90 and 740.56. For the same substance, the “TGF-beta 3 expression” value (Cell conditioned media) was 111.44 and 115.30, the TNF-beta expression (Cell conditioned media) was 675.17 and 671.19 and the bFGF expression (Cell conditioned media) was 7,948.03 and 4,993.83. The 1L-1beta expression (Cell lysate) was 1.00 and 1.13, the 1L-1ra expression (Cell lysate) was 33.00 and 25.91 and the Amphiregulin expression (Cell lysate) was 17.50 and 15.44. The AxI expression (Cell lysate) was 637.50 and 795.83, the BDNF expression (Cell lysate) was 167.50 and 167.82 and the BMP-4 expression (Cell lysate) was 247.00 and 273.70. The “CK beta 8-1 expression” value (Cell lysate) was 1.00 and 1.13, the Eotaxin-2 expression (Cell lysate) was 262.00 and 336.77 and the Eotaxin-3 expression (Cell lysate) was 184.50 and 284.96. The FGF-6 expression (Cell lysate) was 629.00 and 379.57, the GM-CSF expression (Cell lysate) was 433.00 and 636.37 and the I-309 expression (Cell lysate) was 152.50 and 246.10. For the same substance, the IFN-gamma expression (Cell lysate) was 349.00 and 441.52, the IGFBP-2 expression (Cell lysate) was 3,785.50 and 5,554.45 and the IGFBP-4 expression (Cell lysate) was 5,553.00 and 6,043.27. For the same substance, the IL-1alpha expression (Cell lysate) was 1,236.00 and 1,216.99, the IL-5 expression (Cell lysate) was 400.50 and 555.84 and the IL-6 expression (Cell lysate) was 828.50 and 516.98. For the same substance, the IL-7 expression (Cell lysate) was 190.00 and 313.12, the IL-13 expression (Cell lysate) was 428.50 and 555.84 and the IL-15 expression (Cell lysate) was 599.50 and 808.13. For the same substance, the Leptin expression (Cell lysate) was 900.50 and 617.79, the MCP-1 expression (Cell lysate) was 242.50 and 282.71 and the MIG expression (Cell lysate) was 291.00 and 226.39. The MIP-1-delta expression (Cell lysate) was 1.50 and 1.13, the NT-3 expression (Cell lysate) was 1.00 and 1.13 and the SCF expression (Cell lysate) was 74.50 and 148.67. For the same substance, the “TGF-beta 1 expression” value (Cell lysate) was 362.00 and 230.33, the TNF-alpha expression (Cell lysate) was 431.00 and 579.49 and the TNF-beta expression (Cell lysate) was 241.00 and 342.40. For the same substance, the bFGF expression (Cell lysate) was 59,820.50 and 54,057.29.

— patent publication US20100255580A1, “Differentiation of Human Embryonic Stem Cells” (LIFESCCAN, INC., priority 2007, published 2010)
